For this test, the system named is VEGF UTRs. Put plainly: Luciferase reporter inhibition in B9 (VEGF UTRs) versus B12 (no VEGF UTRs) cell lines. The conditions noted are these: B9 with VEGF 5'- and 3'-UTRs, B12 without. The test is classed as cell-based, human. The procedure:
A monocistronic reporter construct (pLuc/vegf5′+3′UTR) is under the transcriptional control of the CMV promoter and contains a VEGF IRES driving the luciferase reporter, which nucleic acid sequences are both upstream of a VEGF 3′-UTR. Stable cell lines are generated by transfecting 293 cells with the pLuc/vegf5′+3′UTR. A stable cell line is cultured under hygromycin B selection to create clonal cell lines consistent with protocols well known in the art. After two weeks of selection, clonal cell lines are screened for luciferase activity. The luciferase activity of several clonal cell lines (hereafter “clones”) are compared and normalized against total protein content. Clones are maintained under hygromycin B selection for more than three months with intermittent monitoring of luciferase activity. Clones are stable and maintain a high level of luciferase expression. Many clones, for example, about twenty, may be compared to each other with respect to luciferase activity. […] Particular parameters for clones are studied prior to selection for use in post-transcriptional, high-throughput screening (PTHTS). Relevant parameters for PTHTS include, but are not limited to, cell number, incubation time, DMSO concentration, and volume of substrate. The B9 cell line harbors the firefly luciferase reporter driven by the CMV promoter and flanked by the 5′- and 3′-UTRs of VEGF transcripts. […]
Background: Reporter assays use an easily measured gene product as a stand-in for the process of interest.

Consider `COc1ccc(C[C@H](N)C(=O)N[C@H]2[C@@H](O)[C@H](n3cnc4c(N(C)C)ncnc43)O[C@@H]2CO)cc1` [puromycin], for which the “UTR specificity: luciferase inhibition in B9 versus B12 cell lines” value is “does not change the difference of inhibition in luciferase expression in these two cell lines”.

These data come from patent US8426194B2, “Methods and agents for screening for compounds capable of modulating VEGF expression” (PTC Therapeutics, Inc., priority 2003, dated 2013).
